Reference: patent US6800633B2, “Pyrrolo[2,3d]pyrimidine compositions and their use” (OSI Pharmaceuticals, Inc., priority 1998, dated 2004)
Read-outs that look alike come from different tables or passages of the source. Blank lines part the entries; values can stand above or below the molecule they belong to.

What was measured:
[1] = biological target: T1, human A1 adenosine receptor (Homo sapiens, UniProt P30542); settings: A1 adenosine receptor agonist; cited from earlier work
T1 sequence (P30542 1-326): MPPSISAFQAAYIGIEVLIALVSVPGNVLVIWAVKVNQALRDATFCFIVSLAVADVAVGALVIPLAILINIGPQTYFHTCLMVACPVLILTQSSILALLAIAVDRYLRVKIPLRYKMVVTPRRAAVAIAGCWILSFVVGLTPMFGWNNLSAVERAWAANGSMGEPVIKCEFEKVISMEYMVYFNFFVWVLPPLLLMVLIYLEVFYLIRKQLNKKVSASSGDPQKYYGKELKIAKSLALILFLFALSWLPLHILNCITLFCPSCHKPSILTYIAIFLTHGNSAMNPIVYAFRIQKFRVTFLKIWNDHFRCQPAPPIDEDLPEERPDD

[2] = biological target: T2, human A2b receptor subtype (Homo sapiens, UniProt P29275); assay: Adenosine 2b receptor subtype competition radioligand binding, [3H]DPCPX, HEK293 membranes
T2 construct: expressed in transfected cells; host or cells: HEK293
T2 sequence (P29275 1-332): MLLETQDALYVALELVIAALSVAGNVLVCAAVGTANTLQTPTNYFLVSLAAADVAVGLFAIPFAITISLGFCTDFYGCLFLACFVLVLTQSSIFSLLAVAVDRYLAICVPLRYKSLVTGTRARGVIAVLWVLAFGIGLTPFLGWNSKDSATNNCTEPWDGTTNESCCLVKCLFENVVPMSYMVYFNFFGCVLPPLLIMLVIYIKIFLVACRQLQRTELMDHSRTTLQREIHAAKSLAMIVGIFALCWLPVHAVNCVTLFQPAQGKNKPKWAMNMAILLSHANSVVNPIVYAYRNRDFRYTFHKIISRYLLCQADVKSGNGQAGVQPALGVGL

[3] = biological target: T3, human A3 receptor subtype (Homo sapiens, UniProt P0DMS8); assay: Adenosine 3 receptor competition radioligand binding, [125I]AB-MECA, HEK293 membranes
T3 sequence (P0DMS8 1-318): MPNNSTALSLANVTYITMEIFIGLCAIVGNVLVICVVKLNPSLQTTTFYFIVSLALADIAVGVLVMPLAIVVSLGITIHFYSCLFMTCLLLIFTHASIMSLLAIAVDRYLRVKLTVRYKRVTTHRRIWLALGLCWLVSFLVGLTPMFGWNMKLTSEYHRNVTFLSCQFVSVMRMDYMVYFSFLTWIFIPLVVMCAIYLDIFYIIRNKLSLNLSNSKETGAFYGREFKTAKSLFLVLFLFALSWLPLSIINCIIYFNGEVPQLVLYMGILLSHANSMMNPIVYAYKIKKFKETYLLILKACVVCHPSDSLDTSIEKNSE

[4] = biological target: human A2a receptor subtype (Homo sapiens, UniProt P29274); assay: Adenosine 2a receptor subtype competition radioligand binding, [3H]CGS-21680, HEK293 membranes
[5] = biological target: T4, human A1 receptor subtype (Homo sapiens, UniProt P30542); assay: biochemical
T4 sequence (P30542 1-326): T1 sequence (P30542 1-326)

[6] = Water solubility (footnote to Table 13); format: physicochemical
[7] = biological target: T4, human A1 receptor subtype
[8] = Table 13, given as %, footnote 8: % activity @ 10 μM
[9] = Table 13, read-out: Binding Ki (nm) A2b

Chain of human A2a receptor subtype (P29274 whole entry): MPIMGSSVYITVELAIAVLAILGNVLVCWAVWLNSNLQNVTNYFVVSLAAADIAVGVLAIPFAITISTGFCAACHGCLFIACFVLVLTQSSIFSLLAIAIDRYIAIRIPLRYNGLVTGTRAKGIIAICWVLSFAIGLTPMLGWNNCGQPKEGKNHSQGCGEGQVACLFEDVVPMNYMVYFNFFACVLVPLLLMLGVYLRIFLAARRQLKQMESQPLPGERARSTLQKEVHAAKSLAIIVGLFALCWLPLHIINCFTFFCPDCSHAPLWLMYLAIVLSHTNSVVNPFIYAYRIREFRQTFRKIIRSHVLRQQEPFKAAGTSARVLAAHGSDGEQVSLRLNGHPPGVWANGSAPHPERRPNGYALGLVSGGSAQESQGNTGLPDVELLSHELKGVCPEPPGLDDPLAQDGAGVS

SMILES: CC(Cc1ccccc1)Nc1ncnc2c1ncn2[C@@H]1O[C@H](CO)[C@@H](O)[C@H]1O (single isomer, unassigned; (-)) [R-PIA, (−)-N6-(2-phenylisopropyl)-adenosine]
reported affinity [1]: approximately 50 nM

SMILES: CNC(=O)NCCCNc1nc(-c2ccccc2)nc2[nH]c(C)c(C)c12 [CDS-121180]
A2a binding, % activity [4, 8]: 76%

SMILES: Cc1[nH]c2nc(-c3ccccc3)nc(NCCCNC(=O)CCN)c2c1C [CDS-121181]
Ki [2, 9]: 3400 nM
Ki [5]: 75 µM

SMILES: Cc1[nH]c2nc(-c3ccccc3)nc(NCCNC(=O)C3(N)CC3)c2c1C [CDS-123264]
water solubility [6]: ^3water soluble;
A1 binding, % activity [7, 8]: 30%

The next lines start with the values.

A2b binding, % activity [2, 8]: 30%
Ki [3]: 9.9 nM
Ki [4]: 731 nM
SMILES: Cc1[nH]c2nc(-c3cccs3)nc(NC3CCC(O)CC3)c2c1C (stereo not drawn) [CDS-090890, 4-(4-trans-hydroxycyclohexyl)amino-5,6-dimethyl-2-(2-thienyl)-7H-pyrrolo[2,3d]pyrimidin-4-amine]

Ki [2, 9]: 138 nM
Ki [3]: 21.5 nM
SMILES: Cc1[nH]c2nc(-c3ccccc3)nc(NC3CCC(O)CC3)c2c1C (stereo not shown) [CDS-046142]

Ki ([2]; Table 14, read-out: Binding Data Ki (nM) A2B): 47 nM
SMILES: CC(=O)NCCNc1nc(-c2ccccc2)nc2[nH]c(Cn3ccccc3=O)cc12 [CDS-143988, 4-(2-acetylaminoethyl)amino-6-(N-pyridin-2-one)methyl-2-phenyl-7H-pyrrolo[2,3d]pyrimidine]

Ki [5]: 0.0417 µM
Ki [3]: 14.6 nM
SMILES: CC(=O)NCCNc1nc(-c2ccccc2)nc2[nH]c(COc3ccccc3)cc12 [CDS-129851, 4-(2-acetylaminoethyl)amino-6-phenoxymethyl-2-phenyl-7H-pyrrolo[2,3d]pyrimidine]

Ki ([7]; read-out: A1 Binding Ki, membranes from yeast cells transformed with human A1 receptor, [3H]DPCPX 1.0 nM): > 10 µM
SMILES: Cc1[nH]c2nc(-c3ccccc3)nc(NC3CCC(NS(C)(=O)=O)CC3)c2c1C (stereo not shown) [CDS-056176]

A3 binding, % activity @ 10 μM ([3]; Table 13, 10 μM): 54%^8
SMILES: O[C@H]1CC[C@H](Nc2nc(-c3ccncc3)nc3[nH]ccc23)CC1 [CDS-131921, 4-(trans-4-hydroxycyclohexyl)amino-2-(4-pyridyl)-7H-pyrrolo[2,3d]pyrimidine]
